Data from the supplement of paper PMC11061612.

What was measured:
Carboplatin = compound: C1CC(C1)(C(=O)[O-])C(=O)[O-].N.N.[Pt+2] [Carboplatin]; conditions: max 10 µM
Procedure, shortened: (§1)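 Cancer cell lines were seeded in 1536-well plates in 7.5 μl DMEM/F12 or RPMI with 10% FBS, held 24 hours at 37°C and 5% CO2, then dosed for 72 hours (final DMSO typically 0.2%). Viability was read by CellTiter-Glo 2.0 luminescence and scaled between blank-well and DMSO-well means. The single-agent IC50 comes from dose responses fitted to a two-parameter logistic curve with a non-linear mixed effects model.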

AZD5363 = compound: C1CN(CCC1(C(=O)N[C@@H](CCO)C2=CC=C(C=C2)Cl)N)C3=NC=NC4=C3C=CN4 [AZD5363]; conditions: max 10 µM
Procedure, shortened: as §1

AZD1775 = compound: C=CCn1c(=O)c2cnc(Nc3ccc(N4CCN(C)CC4)cc3)nc2n1-c1cccc(C(C)(C)O)n1 [AZD1775]; conditions: max 3 µM
Procedure, shortened: as §1

Trametinib = compound: CC(=O)Nc1cccc(-n2c(=O)n(C3CC3)c(=O)c3c(Nc4ccc(I)cc4F)n(C)c(=O)c(C)c32)c1 [Trametinib]; conditions: max 1 µM
Procedure, shortened: as §1

Paclitaxel = compound: CC(=O)O[C@H]1C(=O)[C@@]2(C)[C@H]([C@H](OC(=O)c3ccccc3)[C@]3(O)C[C@H](OC(=O)[C@H](O)[C@@H](NC(=O)c4ccccc4)c4ccccc4)C(C)=C1C3(C)C)[C@]1(OC(C)=O)CO[C@@H]1C[C@@H]2O [Paclitaxel]; conditions: max 3 µM
Procedure, shortened: as §1

Palbociclib = compound: CC(=O)c1c(C)c2cnc(Nc3ccc(N4CCNCC4)cn3)nc2n(C2CCCC2)c1=O [Palbociclib]; conditions: max 10 µM
Procedure, shortened: as §1

AZD1390 = compound: CC(C)n1c(=O)n(C)c2cnc3cc(F)c(-c4ccc(OCCCN5CCCCC5)nc4)cc3c21 [AZD1390]; conditions: max 0.3 µM
Procedure, shortened: as §1

Venetoclax = compound: CC1(C)CCC(CN2CCN(c3ccc(C(=O)NS(=O)(=O)c4ccc(NCC5CCOCC5)c([N+](=O)[O-])c4)c(Oc4cnc5[nH]ccc5c4)c3)CC2)=C(c2ccc(Cl)cc2)C1 [Venetoclax]; conditions: max 1 µM
Procedure, shortened: as §1

Dasatinib = compound: CC1=C(C(=CC=C1)Cl)NC(=O)C2=CN=C(S2)NC3=CC(=NC(=N3)C)N4CCN(CC4)CCO [Dasatinib]; conditions: max 2 µM
Procedure, shortened: as §1

SG3199 = compound: CC1=CN2[C@@H](C1)C=NC3=CC(=C(C=C3C2=O)OC)OCCCCCOC4=C(C=C5C(=C4)N=C[C@@H]6CC(=CN6C5=O)C)OC [SG3199]; conditions: max 0.001 µM
Procedure, shortened: as §1

AZD2811 = compound: CCN(CCO)CCCOc1ccc2c(Nc3cc(CC(=O)Nc4cccc(F)c4)[nH]n3)ncnc2c1 [AZD2811]; conditions: max 1 µM
Procedure, shortened: as §1

SN-38 = compound: CCc1c2c(nc3ccc(O)cc13)-c1cc3c(c(=O)n1C2)COC(=O)[C@]3(O)CC [SN-38]; conditions: max 0.3 µM
Procedure, shortened: as §1

AZD0156 = compound: CN(C)CCCOc1ccc(-c2ccc3ncc4c(c3c2)n(C2CCOCC2)c(=O)n4C)cn1 [AZD0156]; conditions: max 3 µM
Procedure, shortened: as §1

AZD4320 = compound: CN(CC[C@H](CSC1=CC=CC=C1)NC2=C(C=C(C=C2)S(=O)(=O)NC(=O)C3=CC=C(C=C3)N4CCC(CC4)[C@H](C5=CC=CC=C5C6=CC=C(C=C6)Cl)O)S(=O)(=O)C(F)(F)F)CCO [AZD4320]; conditions: max 1 µM
Procedure, shortened: as §1

Alisertib = compound: COc1cc(Nc2ncc3c(n2)-c2ccc(Cl)cc2C(c2c(F)cccc2OC)=NC3)ccc1C(=O)O [Alisertib]; conditions: max 10 µM
Procedure, shortened: as §1

Etoposide = compound: COc1cc([C@@H]2c3cc4c(cc3[C@@H](O[C@@H]3O[C@@H]5CO[C@@H](C)O[C@H]5[C@H](O)[C@H]3O)[C@H]3COC(=O)[C@H]23)OCO4)cc(OC)c1O [Etoposide]; conditions: max 10 µM
Procedure, shortened: as §1

Gefitinib = compound: COc1cc2ncnc(Nc3ccc(F)c(Cl)c3)c2cc1OCCCN1CCOCC1 [Gefitinib]; conditions: max 10 µM
Procedure, shortened: as §1

Prexasertib = compound: COc1cccc(OCCCN)c1-c1cc(Nc2cnc(C#N)cn2)n[nH]1 [Prexasertib]; conditions: max 1 µM
Procedure, shortened: as §1

Doxorubicin = compound: COc1cccc2c1C(=O)c1c(O)c3c(c(O)c1C2=O)C[C@@](O)(C(=O)CO)C[C@@H]3O[C@H]1C[C@H](N)[C@H](O)[C@H](C)O1 [Doxorubicin]; conditions: max 1 µM
Procedure, shortened: as §1

AZD5153 = compound: COc1nnc2ccc(N3CCC(c4ccc(OCCN5CCN(C)C(=O)[C@H]5C)cc4)CC3)nn12 [AZD5153]; conditions: max 1 µM
Procedure, shortened: as §1

Lapatinib = compound: CS(=O)(=O)CCNCc1ccc(-c2ccc3ncnc(Nc4ccc(OCc5cccc(F)c5)c(Cl)c4)c3c2)o1 [Lapatinib]; conditions: max 10 µM
Procedure, shortened: as §1

AZD8186 = compound: C[C@@H](Nc1cc(F)cc(F)c1)c1cc(C(=O)N(C)C)cc2c(=O)cc(N3CCOCC3)oc12 [AZD8186]; conditions: max 10 µM
Procedure, shortened: as §1

Crizotinib = compound: C[C@@H](Oc1cc(-c2cnn(C3CCNCC3)c2)cnc1N)c1c(Cl)ccc(F)c1Cl [Crizotinib]; conditions: max 10 µM
Procedure, shortened: as §1

Savolitinib = compound: C[C@@H](c1ccc2nccn2c1)n1nnc2ncc(-c3cnn(C)c3)nc21 [Savolitinib]; conditions: max 1 µM
Procedure, shortened: as §1

AZD6738 = compound: C[C@@H]1COCCN1C2=NC(=NC(=C2)C3(CC3)[S@](=N)(=O)C)C4=C5C=CNC5=NC=C4 [AZD6738]; conditions: max 10 µM
Procedure, shortened: as §1

AZD5991 = compound: Cc1c2c(nn1C)CSCc1cc(n(C)n1)CSc1cc(c3ccccc3c1)OCCCc1c(C(=O)O)n(C)c3c-2c(Cl)ccc13 [AZD5991]; conditions: max 1 µM
Procedure, shortened: as §1

AZD7648 = compound: Cc1cc2ncnn2cc1Nc1ncc2c(n1)n(C1CCOCC1)c(=O)n2C [AZD7648]; conditions: max 10 µM
Procedure, shortened: as §1

Taselisib = compound: Cc1nc(-c2cn3c(n2)-c2ccc(-c4cnn(C(C)(C)C(N)=O)c4)cc2OCC3)n(C(C)C)n1 [Taselisib]; conditions: max 10 µM
Procedure, shortened: as §1

Selumetinib = compound: Cn1cnc2c(F)c(Nc3ccc(Br)cc3Cl)c(C(=O)NOCCO)cc21 [Selumetinib]; conditions: max 10 µM
Procedure, shortened: as §1

SRA737 = compound: N#Cc1cnc(Nc2cc(NC[C@H]3CNCCO3)c(C(F)(F)F)cn2)cn1 [SRA737]; conditions: max 10 µM
Procedure, shortened: as §1

MK-2206 = compound: NC1(c2ccc(-c3nc4ccn5c(=O)[nH]nc5c4cc3-c3ccccc3)cc2)CCC1 [MK-2206]; conditions: max 10 µM
Procedure, shortened: as §1

Gemcitabine = compound: Nc1ccn([C@@H]2O[C@H](CO)[C@@H](O)C2(F)F)c(=O)n1 [Gemcitabine]; conditions: max 0.3 µM
Procedure, shortened: as §1

[1] = compound: O=C(Nc1ccc2[nH]nc(-c3ccncc3)c2c1)[C@@H]1CCN(CC(=O)N2CCN(c3ccc(-c4ncccn4)cc3)CC2)C1; conditions: max 5 µM
Procedure, shortened: as §1

Olaparib = compound: O=C(c1cc(Cc2n[nH]c(=O)c3ccccc23)ccc1F)N1CCN(C(=O)C2CC2)CC1 [Olaparib]; conditions: max 10 µM
Procedure, shortened: as §1

5-Fluorouracil = compound: O=c1[nH]cc(F)c(=O)[nH]1 [5-Fluorouracil]; conditions: max 20 µM
Procedure, shortened: as §1

Cell Line | IC50, cell viability 72 h (Carboplatin) | IC50, cell viability 72 h (AZD5363) | IC50, cell viability 72 h (AZD1775) | IC50, cell viability 72 h (Trametinib) | IC50, cell viability 72 h (Paclitaxel) | IC50, cell viability 72 h (Palbociclib) | IC50, cell viability 72 h (AZD1390) | IC50, cell viability 72 h (Venetoclax) | IC50, cell viability 72 h (Dasatinib) | IC50, cell viability 72 h (SG3199) | IC50, cell viability 72 h (AZD2811) | IC50, cell viability 72 h (SN-38) | IC50, cell viability 72 h (AZD0156) | IC50, cell viability 72 h (AZD4320) | IC50, cell viability 72 h (Alisertib) | IC50, cell viability 72 h (Etoposide) | IC50, cell viability 72 h (Gefitinib) | IC50, cell viability 72 h (Prexasertib) | IC50, cell viability 72 h (Doxorubicin) | IC50, cell viability 72 h (AZD5153) | IC50, cell viability 72 h (Lapatinib) | IC50, cell viability 72 h (AZD8186) | IC50, cell viability 72 h (Crizotinib) | IC50, cell viability 72 h (Savolitinib) | IC50, cell viability 72 h (AZD6738) | IC50, cell viability 72 h (AZD5991) | IC50, cell viability 72 h (AZD7648) | IC50, cell viability 72 h (Taselisib) | IC50, cell viability 72 h (Selumetinib) | IC50, cell viability 72 h (SRA737) | IC50, cell viability 72 h (MK-2206) | IC50, cell viability 72 h (Gemcitabine) | IC50, cell viability 72 h [1] | IC50, cell viability 72 h (Olaparib) | IC50, cell viability 72 h (5-Fluorouracil)
SK-CO-1 (Colorectal Carcinoma) | > 10000 nM | > 10000 nM | 1240 nM | 5.27 nM | 4.07 nM | > 10000 nM | > 300 nM | > 1000 nM | > 2000 nM | > 1 nM | 383 nM | 5.9 nM | > 3000 nM | 700 nM | 3130 nM | 2140 nM | > 10000 nM | 248 nM | 185 nM | > 1000 nM | > 10000 nM | 9810 nM | 1800 nM | > 1000 nM | 6580 nM | > 1000 nM | > 10000 nM | 1220 nM | 1120 nM | > 10000 nM | > 10000 nM | 9.48 nM | 85.6 nM | > 10000 nM | > 20000 nM
SK-N-SH (Neuroblastoma) | > 10000 nM | > 10000 nM | 1440 nM | > 1000 nM | 77.4 nM | > 10000 nM | > 300 nM | > 1000 nM | > 2000 nM | > 1 nM | > 1000 nM | 2.92 nM | > 3000 nM | 794 nM | 59.3 nM | 667 nM | > 10000 nM | 26.5 nM | 66.9 nM | > 1000 nM | > 10000 nM | > 10000 nM | 2410 nM | > 1000 nM | 2260 nM | > 1000 nM | > 10000 nM | 1520 nM | > 10000 nM | > 10000 nM | > 10000 nM | 58.5 nM | > 5000 nM | > 10000 nM | > 20000 nM
